The target in data set [1] is T1, GSK 3α enzyme isoform (Homo sapiens, UniProt P49840).
T1 construct: purchased Life Technologies
As to the kind of experiment: GSK 3α enzyme inhibition (Z-LYTE FRET). Format: biochemical. The following applies: Table 2A; read-out: IC50 Values for Enzyme Inhibition GSK3α. Put shortly: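 Z-LYTE FRET kinase assay: GSK3α protein (500 ng/mL stock) preincubated with compound (0.0012–40 μg/mL stocks) for 2 h at RT. FRET peptide (8 μM stock) and ATP (40 μM stock) added for 1 h at RT, then protease development for 1 h. Phosphorylation taken from the coumarin/fluorescein emission ratio.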

In data set [2] the target is T2, p38 MAPKα isoform (MAPK14) (Homo sapiens, UniProt Q16539).
T2 construct: purchased Life Technologies
As to the kind of experiment: p38 MAPKα enzyme inhibition (Z-LYTE FRET). Format: biochemical. The conditions noted are these: Table 2A; read-out: IC50 Values for Enzyme Inhibition p38 MAPKα. Put shortly:
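Activity was measured indirectly as phosphorylation of a MAPKAP-K2-derived FRET peptide. Enzyme (added at 40 ng/mL) was preincubated 2 h at RT with compound (added solutions 40–0.0012 μg/mL).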

Data set [3] has as its target T3, Hck (Homo sapiens, UniProt P08631).
T3 construct: purchased Life Technologies
As to the kind of experiment: Hck enzyme inhibition (Z-LYTE FRET). Format: biochemical. The conditions noted are these: Table 2A. The method in brief:
(§1)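 Z-LYTE readout: coumarin-to-fluorescein ratio after 1 h protease cleavage of unphosphorylated peptide. Kinase reactions ran 1 h at RT with ATP stock at 800 μM (c-Src) or 60 μM (Hck, Syk), following 2 h compound preincubation over 0.0012–40 μg/mL; enzyme stocks 1000/1400/2000 ng/mL.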

For data set [4], the system named is d-U937 cells. As to the kind of experiment: Cell viability: MTT assay in differentiated U937 cells. Format: cell-based, human. The conditions noted are these: 10 μg/mL. The method in brief:
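Viability loss, calculated against 0.5% DMSO vehicle (gains reported negative), was measured by MTT reduction (1 h) and A550 after DMSO solubilisation. Compound exposure of d-U937 cells was 10 μg/mL final, for 24 h in 10% FCS or 4 h in 5% FCS RPMI1640.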

For data set [5], the system named is IL-8 release in d-U937 cells. As to the kind of experiment: LPS-induced IL-8 release in d-U937 cells. Format: cell-based. The conditions noted are these: Homo sapiens, dU937, LPS 0.1 μg/mL 4 h. Put shortly:
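PMA-differentiated U937 (100-200 ng/mL, 48-72 h); cpd pre-inc 2 h; LPS 0.1 μg/mL (E. coli O111:B4), 4 h. Supernatant TNFα/IL-8 by sandwich ELISA. % inhibition vs vehicle; REC50 from curve.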

Data set [6] has as its target T4, Syk (Homo sapiens, UniProt P43405).
T4 construct: purchased Life Technologies
As to the kind of experiment: Syk enzyme inhibition (Z-LYTE FRET). Format: biochemical. The following applies: Table 2A. Put shortly:
as §1

The structures appear in SMILES notation. pIC50: −log10 of the molar value. Bounds are passed on as bounds.

Broadly, the pIC50 is the IC50 on a negative log10 scale, so that one unit is a factor of ten.

T2 sequence (Q16539 whole entry, canonical isoform): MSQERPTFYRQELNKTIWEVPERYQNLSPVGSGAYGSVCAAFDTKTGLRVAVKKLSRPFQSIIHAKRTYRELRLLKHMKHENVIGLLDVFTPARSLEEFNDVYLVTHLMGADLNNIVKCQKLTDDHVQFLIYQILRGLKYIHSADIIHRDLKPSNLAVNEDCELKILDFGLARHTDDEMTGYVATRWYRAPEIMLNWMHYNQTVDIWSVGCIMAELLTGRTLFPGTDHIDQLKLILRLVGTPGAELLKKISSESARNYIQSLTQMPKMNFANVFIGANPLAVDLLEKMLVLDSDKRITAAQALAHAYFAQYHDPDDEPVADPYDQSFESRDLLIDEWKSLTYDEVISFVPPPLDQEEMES
T1 sequence (P49840 whole entry, canonical isoform): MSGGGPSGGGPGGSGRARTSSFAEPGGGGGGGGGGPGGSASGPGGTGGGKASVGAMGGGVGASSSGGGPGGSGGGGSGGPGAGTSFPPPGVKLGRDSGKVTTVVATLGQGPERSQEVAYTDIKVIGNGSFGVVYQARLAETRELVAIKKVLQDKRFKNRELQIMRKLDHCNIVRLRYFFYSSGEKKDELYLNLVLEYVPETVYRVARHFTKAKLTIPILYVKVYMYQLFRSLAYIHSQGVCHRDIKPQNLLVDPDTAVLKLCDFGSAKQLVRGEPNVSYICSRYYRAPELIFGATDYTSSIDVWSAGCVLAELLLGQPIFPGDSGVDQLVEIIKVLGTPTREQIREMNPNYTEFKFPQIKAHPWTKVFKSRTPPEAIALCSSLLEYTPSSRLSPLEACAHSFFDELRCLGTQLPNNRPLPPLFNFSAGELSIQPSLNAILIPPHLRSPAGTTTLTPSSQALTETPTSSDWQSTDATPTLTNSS
T3 sequence (P08631 22-526): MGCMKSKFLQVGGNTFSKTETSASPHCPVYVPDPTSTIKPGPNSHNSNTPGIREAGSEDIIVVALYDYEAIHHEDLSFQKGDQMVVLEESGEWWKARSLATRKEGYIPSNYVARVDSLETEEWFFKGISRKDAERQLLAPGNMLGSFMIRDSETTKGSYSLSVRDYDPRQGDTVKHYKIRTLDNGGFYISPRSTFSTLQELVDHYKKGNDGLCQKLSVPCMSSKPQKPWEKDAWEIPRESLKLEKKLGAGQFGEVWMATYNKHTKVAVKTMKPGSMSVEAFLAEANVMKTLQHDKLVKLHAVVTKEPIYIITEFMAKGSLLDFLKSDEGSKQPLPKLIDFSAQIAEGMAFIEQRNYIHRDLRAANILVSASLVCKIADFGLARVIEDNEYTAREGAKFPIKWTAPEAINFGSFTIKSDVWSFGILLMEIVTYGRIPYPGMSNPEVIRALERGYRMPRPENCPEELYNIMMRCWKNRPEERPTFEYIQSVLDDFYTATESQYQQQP

On to `CCc1ccc(-n2nc(C(C)(C)C)cc2NC(=O)Nc2ccc(OCc3ccnc(Nc4cnccn4)c3)c3ccccc23)cc1` [Example 42], for which the pIC50 in data set [1] is 5.16; in data set [2], 7.82; in data set [3], 7.05; in data set [5], 7.74; in data set [6], under 4.79. Moreover, the “MTT Assay Cell viability at time point indicated in d-U937 Cells, 4 h” value (from here on “MTT Assay Cell viability … in d-U937 Cells, 4 h”) in data set [4] was “− (−ve and +ve indicate the value is below and above, respectively, the no significant effect threshold defined as 30% inhibition at 10 μg/mL at the time point indicated)”. Also, in data set [4], the “MTT Assay Cell viability at time point indicated in d-U937 Cells, 24 h” value (from here on “MTT Assay Cell viability … 24 h”) was “− (−ve and +ve indicate the value is below and above, respectively, the no significant effect threshold defined as 30% inhibition at 10 μg/mL at the time point indicated)”.

Regarding `COCCNC(=O)c1cnc(Nc2cc(COc3ccc(NC(=O)Nc4cc(C(C)(C)C)nn4-c4ccc(C)s4)c4ccccc34)ccn2)cn1` [Example 43], the pIC50 was 5.10 in data set [1]; 7.92 in data set [2]; 7.28 in data set [3]; 7.38 in data set [5]; under 4.85 in data set [6]. Further, the “MTT Assay Cell viability … in d-U937 Cells, 4 h” value in data set [4] is “− (−ve and +ve indicate the value is below and above, respectively, the no significant effect threshold defined as 30% inhibition at 10 μg/mL at the time point indicated)”. For the same compound, in data set [4], the “MTT Assay Cell viability … 24 h” value was “− (−ve and +ve indicate the value is below and above, respectively, the no significant effect threshold defined as 30% inhibition at 10 μg/mL at the time point indicated)”.

Consider `Cc1ccc(-n2nc(C(C)(C)C)cc2NC(=O)Nc2ccc(OCc3ccnc(Nc4cnc(C(=O)NCCN5CCOCC5)cn4)c3)c3ccccc23)cc1` [Example 17], for which the pIC50 in data set [1] is 5.55; in data set [2], 8.10; in data set [3], 7.77; in data set [5], 7.78; in data set [6] it was under 4.88. For the same compound, the “MTT Assay Cell viability … in d-U937 Cells, 4 h” value in data set [4] is “− (−ve and +ve indicate the value is below and above, respectively, the no significant effect threshold defined as 30% inhibition at 10 μg/mL at the time point indicated)”. Moreover, the “MTT Assay Cell viability … 24 h” value in data set [4] is “− (−ve and +ve indicate the value is below and above, respectively, the no significant effect threshold defined as 30% inhibition at 10 μg/mL at the time point indicated)”.

Turning to `Cc1ccc(-n2nc(C(C)(C)C)cc2NC(=O)Nc2ccc(OCc3ccnc(Nc4cncc(CC(=O)N(C)C)n4)c3)c3ccccc23)cc1` [Example 8, 2-(6-((4-(((4-(3-(3-(tert-butyl)-1-(p-tolyl)-1H-pyrazol-5-yl)ureido)naphthalen-1-yl)oxy)methyl)pyridin-2-yl)amino)pyrazin-2-yl)-N,N-dimethylacetamide], the pIC50 is 6.86 in data set [1]; 9.00 in data set [2]; 8.00 in data set [3]; 7.99 in data set [5]; under 4.83 in data set [6]. Moreover, the “MTT Assay Cell viability … in d-U937 Cells, 4 h” value in data set [4] is “− (−ve and +ve indicate the value is below and above, respectively, the no significant effect threshold defined as 30% inhibition at 10 μg/mL at the time point indicated)”. Besides, the “MTT Assay Cell viability … 24 h” value in data set [4] was “+ (−ve and +ve indicate the value is below and above, respectively, the no significant effect threshold defined as 30% inhibition at 10 μg/mL at the time point indicated)”.

As to `Cc1ccc(-n2nc(C(C)(C)C)cc2NC(=O)Nc2ccc(OCc3ccnc(Nc4cncc(C)n4)c3)c3ccccc23)cc1` [Example 20], the pIC50 in data set [1] was 5.04; in data set [2], 7.82; in data set [3], 7.28; in data set [5] it was 8.89; in data set [6], under 4.79. Also, the “MTT Assay Cell viability … in d-U937 Cells, 4 h” value in data set [4] is “− (−ve and +ve indicate the value is below and above, respectively, the no significant effect threshold defined as 30% inhibition at 10 μg/mL at the time point indicated)”. For the same compound, in data set [4], the “MTT Assay Cell viability … 24 h” value was “− (−ve and +ve indicate the value is below and above, respectively, the no significant effect threshold defined as 30% inhibition at 10 μg/mL at the time point indicated)”.

The record behind these values is patent publication US11142515B2, “Pyrazolyl-ureas as kinase inhibitors” (RESPIVERT LIMITED, priority 2014, dated 2021).
